We go through 1 molecule from patent US6440391B1, “Management of snoring by oral administration of dimethyl sulfone” (Elstan Corporation, priority 2000, dated 2002).

Several values for one entry are separate records, joined by “and”; a condition that tells them apart may be missing. Equal entries are not always repeated.

In data set [1] the test system is snoring. The data set can be described thus: Oral spray of methylsulfonylmethane solution onto the oropharynx before sleep; snoring observed by subject's mate. More on the design: key to Results (relief of snoring): FR = Full Relief; MR = Moderate Relief; NR = No Relief. The conditions noted are these: for Results (relief of snoring): one line per subject. The data set is classed as in vivo, human. The method, then:
The initial experiments to determine effectiveness of the instillation of methylsulfonylmethane as a snoring reduction agent was carried out with an initial sampling of 10 individuals.
In each of the above cases, the subject was instructed to spray the solution containing the methylsulfonylmethane four (4) times into the oropharynx approximately fifteen (15) minutes to thirty (30) minutes prior to retiring for sleep. Each spray contained about 0.2 ml; to 0.25 ml of the solution. Thus, the total amount instilled is about 0.8 ml to […]. The observation of the presence or absence of snoring was made by the subject's mate. The observing party was not told that the subject was employing […] methylsulfonylmethane. As noted in Table I, 70% of the subject's mates reported the lessening or absence of snoring while 30% reported no benefit from the oral administration of the methylsulfonylmethane.
The seven patients who reported full relief or moderate relief where thereafter provided with a saline spray as a placebo without their knowledge. In each case the snoring returned. They were again given the methylsulfonylmethane spray and 70% again achieve full relief.
A second sampling of subjects was undertaken wherein the weight percentage of methylsulfonylmethane in water was varied at 1%, 5% and 10%.
By warming the solution of water and methylsulfonylmethane to no more than about 37° C. (98.6° F.), a greater concentration of methylsulfonylmethane will go into solution.

Data set [2] relates to snoring. To be noted: cited from earlier work.
[3] abbreviates: 15% MSM, oral spray, 10 individuals (Table I).

In the case of `CS(C)(=O)=O` [MSM, methylsulfonylmethane], the “Results (relief of snoring)” value was “FR and NR (3×)” in data set [1] (1% MSM by weight in water, oral); “NR (2×) and FR (2×)” in data set [1] (5% MSM by weight in water, oral); “FR (3×) and NR” in data set [1] (10% MSM by weight in water, oral); “FR (6×) and NR (3×) and MR” in data set [1] (15% MSM by weight, oral spray 4 times (0.8-1.2 ml) 15-30 min before sleep); “FR” in data set [1] (20% MSM by weight in water, solution warmed to no more than about 37° C., oral). For the same molecule, the “relief of snoring at lowest concentration” value in data set [1] (1% by weight in water, oral, Table II) is given as “the relief was not reported to be as dramatic as at higher concentrations”. Moreover, in data set [1] (1%-20% by weight in water, oral, Tables I-III), the “effectiveness of concentration range against snoring” value was “effective”. In data set [1] (setting [3]), the “subject's mates reporting lessening or absence of snoring” value is reported as 70%. The “subject's mates reporting no benefit” value in data set [1] (setting [3]) amounted to 30%. Moreover, the “patients again achieving full relief when given the spray again” value in data set [1] (the seven responders, re-given MSM spray after saline placebo (snoring returned on placebo)) came out at 70%. The “effectiveness of intranasal treatment” value in data set [2] (1% to 20% by weight, drops into the nasal cavity) is “highly effective”. Moreover, the “time interval of reduced snoring” value in data set [2] (nasal administration saturating mucous membranes of the nasal passageways) was 8 to 12 h. The “local tolerability on nasal instillation” value in data set [2] (nasal route, some individuals) was “slight burning sensation”.
